Where “and” joins values, the source holds several entries; their conditions need not be identical. Equal values may be shown once. Read-outs that look alike come from different tables or passages of the source.
What was measured:
[1] = test system: control brain homogenates; test: [14C]CG binding to control brain homogenates; design: species or system human
[2] = Octanol/water partitioning; type: physicochemical; conditions: from partition coefficients
Description: The mixture was then centrifuged at 1,000 g to facilitate the formation of two clear phases. […] Concentrations were determined after correction for the molar absorptivity differences in the two solvents and the partition coefficient expressed as the concentration in the octanol layer divided by the concentration in the aqueous layer. Experiments were done in triplicate.

[3] = test system: rat pheochromocytoma (PC-12) cells
Description: Rat pheochromocytoma cells (PC-12) were grown in RPMI 1640 media with 10% fetal bovine serum. Approximately 5,000 exponentially growing cells were plated in 96-well plates in a volume of 100 μl of media and allowed to incubate at 37° C. overnight. […] The cells were incubated for 24 hrs prior to the addition of 13.3 μl of 5 mg/ml MTT (3,(4,5-dimethylthiazol-2-yl)2,5-diphenyltetrazolium bromide) in sterile phosphate buffered saline. After 4.5 hrs at 37° C., 100 μl of extraction buffer (20% w/v SDS in 50% DMF/water; pH adjusted to 4.7 with 2.5% of 80% acetic acid and 2.5% 1N HCl) was added and the plates were incubated overnight. Hansen et al., J. Immunol. Methods 119: 203 (1989). Color development was then measured at 560 nm. Maximum viability was defined as the absorbance of control wells to which only the 20 μl of distilled, deionized H2O was added. Maximum toxicity was defined by wells in which the cells were lysed by addition of 0.1% (final concentration) of Triton X-100.

in vivo = conditions: mouse
AD brain homogenates [4] = test: [14C]CG binding to AD brain homogenates; conditions: for total binding, AD: high and low-plaque AD brains combined
Description: (§2) Autopsy brain samples were obtained from the Neuropathology Core of the Alzheimer's Disease Research Center of the University of Pittsburgh. […] Brain samples from eight control (ages 58-75), eleven AD (ages 61-84), and two Down syndrome brains were studied. There were six high-plaque (>20 NPs/×200 magnification) and five low-plaque (<20 NPs/×200 magnification) AD brains. […] Autopsy samples were immediately frozen at −70° C. and stored at that temperature until homogenized. […] The Bielschowsky silver impregnation method was used to identify NPs and NFTs and Congo red staining was used to identify cerebral amyloid angiopathy.
(§3) Aliquots of 25-150 μl tissue (about 25-300 μg of protein by the method of Lowry et al., J. Biol, Chem. 193: 265 (1951)) were incubated in 12×75 mm borosilicate glass tubes at room temperature with 10-750 nM [^14C]CG (26.8 Ci/mole) in a final volume of 1.0 ml of 10% ethanol for 30 min at room temperature. The standard conditions employed about 150 μg of protein and 75 nM [^14C]CG for the cerebellar ratio studies and about 75 μg of protein and 150 nM [^14C]CG for the correlative studies with NPs, NFTS, and amyloid angiopathy. Ethanol was necessary to prevent the micelle formation which occurs with diazo dye derivatives, since the micelles are trapped by the filter even in the absence of tissue. Bound and free radioactivity were separated by vacuum filtration through Whatman GF/B filters using a Brandel M-24R Cell Harvester (Gaithersburg, Md.) followed by two 3-ml washes with 10% ethanol at room temperature. Filters were equilibrated overnight in 4 ml Cytoscint®-ES scintillant (ICN Biomedicals, Inc., Irvine, Calif.) in 7.0 ml plastic scintillation vials before counting. Saturable (specific) binding was defined as total binding minus residual (non-saturable) binding in the presence of 20 μM unlabelled CG. In all binding assays, incubations were done at least in triplicate and the results expressed as mean±standard error unless otherwise specified. Results were expressed either in absolute terms of fmol [^14C]CG bound/μg protein in a given brain area, or as a ratio of the fmol/μg protein in that brain area to the fmol/μg protein in the cerebellum of the same brain.

AD brain homogenates [5] = biological target: AD brain homogenates (Homo sapiens, UniProt P05067); test: [14C]CG binding to AD brain homogenates
Chain of AD brain homogenates (Homo sapiens, UniProt P05067) (P05067 18-770): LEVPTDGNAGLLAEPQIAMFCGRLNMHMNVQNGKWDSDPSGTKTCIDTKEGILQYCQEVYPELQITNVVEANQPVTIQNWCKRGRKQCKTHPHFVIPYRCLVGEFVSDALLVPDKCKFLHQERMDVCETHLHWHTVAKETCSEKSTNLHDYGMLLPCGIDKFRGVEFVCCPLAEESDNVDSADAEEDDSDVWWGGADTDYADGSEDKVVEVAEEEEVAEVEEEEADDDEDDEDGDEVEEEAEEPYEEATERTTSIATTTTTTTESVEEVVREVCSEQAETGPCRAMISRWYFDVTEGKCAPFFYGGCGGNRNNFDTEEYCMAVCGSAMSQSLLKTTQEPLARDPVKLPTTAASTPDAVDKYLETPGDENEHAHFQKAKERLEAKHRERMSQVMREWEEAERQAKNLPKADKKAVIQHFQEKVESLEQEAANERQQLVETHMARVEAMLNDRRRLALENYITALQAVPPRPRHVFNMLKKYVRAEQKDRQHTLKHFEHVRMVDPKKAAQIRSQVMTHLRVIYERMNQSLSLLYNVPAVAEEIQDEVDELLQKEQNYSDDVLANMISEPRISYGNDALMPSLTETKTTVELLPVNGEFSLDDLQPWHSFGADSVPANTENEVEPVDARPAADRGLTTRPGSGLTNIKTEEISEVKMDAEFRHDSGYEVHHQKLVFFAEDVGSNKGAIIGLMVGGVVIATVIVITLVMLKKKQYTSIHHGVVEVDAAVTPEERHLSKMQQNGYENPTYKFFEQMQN
Description: as §2, §3

[6] = biological target: synthetic Aβ (10-43) peptide (Homo sapiens, UniProt P05067); test: Scatchard analysis of Chrysamine G binding to synthetic Aβ (10-43)
Chain of synthetic Aβ (10-43) peptide (P05067 681-714): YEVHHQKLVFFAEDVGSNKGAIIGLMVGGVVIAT
Excerpt: Hilbich et al., J. Mol. Biol. 218: 149 (1991). The 10-43 amino acid fragment of Aβ was synthesized with 9-fluorenylmethyl chloroformate (FMOC) chemistry by the Peptide Synthesis Facility of the University of Pittsburgh. […] The peptide was further purified by the method of Hilbich et al. which, in brief, consisted of sequential size-exclusion chromatography on a Biogel P10 column (2×180 cm, 200-400 mesh, Biorad, Richmond, Calif.) in 70% formic acid followed by a second elution through a Biogel P4 column (2×180 cm, 200-400 mesh) in 1M acetic acid. Hilbich et al., J. Mol. Biol. 218: 149 (1991). The peptide was lyophilized and stored at −80° C. until used in the binding assays.
(§1) Binding assays were performed in 12×75 mm borosilicate glass tubes. […] To the above solution, 25 μl of a 0.36 mg/ml suspension of Aβ (10-43) in H2O was added and 10% ethanol was added to bring the volume to 950 μl. […] The binding mixture was incubated for 30 min at room temperature.

[7] = test system: Down's syndrome brain samples; test: [14C]Chrysamine G binding to Down's syndrome brain samples; design: species or system human; conditions: two patients; ratio to cerebellum (FIG. 9C)
Excerpt: Down's syndrome patients all develop deposits of Aβ by their fourth decade and many develop AD. Wisniewski et al., Neurology 35: 957 (1985); Schapiro et al., Neurobiol. Aging 13, 723 (1992).

[8] = biological target: T1, synthetic peptide, Aβ (10-43) (Homo sapiens, UniProt P05067); test: Inhibition of [14C]Chrysamine G binding to Aβ (10-43)
T1 construct: The 10-43 amino acid fragment of Aβ was synthesized; made in house; host or cells: chemical (FMOC) peptide synthesis, no expression host
T1 sequence (P05067 681-714): as above
Description: as §1
Ki is defined as IC50/(1+[L]/KD ), where [L] is the concentration of [^14C]

Aβ (10-43) = Aβ (10-43) (Homo sapiens, UniProt P05067); test: Kinetics of [14C]Chrysamine G binding to Aβ (10-43)
Chain of Aβ (10-43) (P05067 681-714): as above
Description: This mixture was vortexed and incubated for 30 min at room temperature.
Bennett, J. P. and Yamamura, H. I. in NEUROTRANSMITTER RECEPTOR BINDING (N.Y.: Raven Press 1985) pp. 61-89. […] The curve in FIG. 6C follows the equation: […]

[9] = Tissue levels after i.v. injection of [14C]Chrysamine G in mice (blood-brain barrier, metabolism); type: in vivo, Swiss-Webster mice; conditions: brain and liver extracted 60 min after i.v. injection
Description: Mice were sacrificed by cervical dislocation at intervals of 15 min, 35 min, 1 hr, 4 hr, and 24 hr after injection. The carotid blood, brain, liver, and kidneys were rapidly obtained, weighed, and homogenized in distilled/deionized H2O using a ground glass homogenizer. An aliquot was weighed into an 18.0 ml plastic scintillation vial (Beckman Poly-Q-Vial) and counted after addition of 10.0 ml of scintillation cocktail (Cytoscint®-ES (ICN)) and overnight equilibration.
Brain and liver were then removed and extracted with a Folch procedure. Folch et al., J. Biol. Chem. 226: 447 (1957). In both tissues, over 95% of the extracted radioactivity was contained in the organic layer. The organic layer was evaporated to dryness, resuspended in a minimal amount of 10% methanol/90% ACN, and injected onto a silica column (Prep Nova Pak HR Silica, 7.8×300 mm, Waters, Milford, Mass.) and eluted isocratically with the same solvent. Under these conditions, 99% of the radioactivity is eluted in the solvent front, but most lipids are retained longer, making the fraction eluting in the solvent front suitable for injection onto the reverse-phase C4 column system described above. […] One minute fractions were collected and counted after addition of 10 ml of Cytoscint®-ES.

[10] = PC-12 cells, Aβ (25-35), MTT reduction

SMILES: O=C(O)c1cc(N=Nc2ccc(-c3ccc(N=Nc4ccc(O)c(C(=O)O)c4)cc3)cc2)ccc1O [Chrysamine G, 4,4′-bis(3-carboxy-4-hydroxyphenylazo)-biphenyl]
- Bmax, typical control brain sample (FIG. 4B) [1]: 614 fmol/μg protein
- total binding, Control ([1]; Cerebellum): 75 ± 13 (n = 8) fmol/μg protein
- Bmax (pmol/μg prot) ([1]; Control (n = 6)): 0.576 ± .092 pmol/μg prot
- Kd ([1]; Control (n = 6), read-out: KD): 470 ± 49 nM
- total binding, Control ([1]; Frontal Pole): 58 ± 8 (n = 6) fmol/μg protein
- total binding, Control ([1]; Head of Caudate): 73 ± 11 (n = 4) fmol/μg protein
- total binding, Control ([1]; Inferior Parietal): 76 ± 13 (n = 8) fmol/μg protein
- total binding, Control ([1]; Occipital): 64 ± 16 (n = 8) fmol/μg protein
- total binding, Control ([1]; Superior Temporal): 66 ± 17 (n = 8) fmol/μg protein
- total binding, Control ([1]; Superior/Middle Frontal): 54 ± 10 (n = 8) fmol/μg protein
- Kd ([1]; read-out: KD, typical control brain sample (FIG. 4B)): 480 nM
- times more lipophilic than Congo red [2]: approximately 90
- MTT reduction with compound alone versus control [3]: no significant difference
- concentration at which the protective effect is evident [3, 10]: 0.2 µM
- concentration range showing effects [3, 10]: 0.1 to 1.0 µM
- effect on toxicity induced by 1 μM Aβ (25-35) ([3]; PC-12 cells, MTT reduction (FIG. 14)): protective effects at 0.1 and 1 μM
- LD50 at 72 h (in vivo): > 100 mg/kg
- saturable (specific) binding as share of total binding (AD brain homogenates [4]; AD brain homogenates): 60-80%
- total binding, AD (AD brain homogenates [4]; Cerebellum): 73 ± 9 (n = 11) fmol/μg protein
- total binding, AD (AD brain homogenates [4]; Frontal Pole): 124 ± 16 (n = 10) fmol/μg protein
- total binding, AD (AD brain homogenates [4]; Head of Caudate): 123 ± 22 (n = 7) fmol/μg protein
- total binding, AD (AD brain homogenates [4]; Inferior Parietal): 137 ± 19 (n = 11) fmol/μg protein
- total binding, AD (AD brain homogenates [4]; Occipital): 95 ± 12 (n = 11) fmol/μg protein
- total binding, AD (AD brain homogenates [4]; Superior Temporal): 121 ± 14 (n = 11) fmol/μg protein
- total binding, AD (AD brain homogenates [4]; Superior/Middle Frontal): 130 ± 21 (n = 11) fmol/μg protein
- Bmax in AD brain higher than control (AD brain homogenates [4]; not significant (p=0.09)): 36%
- KD in AD brain lower than control (AD brain homogenates [4]; not significant (p=0.29)): 16%
- Bmax (pmol/μg prot) (AD brain homogenates [5]; AD (n = 5)): 0.784 ± .061 pmol/μg prot
- Bmax, typical AD brain sample (FIG. 4B) (AD brain homogenates [5]; AD brain sample with 48 NP/×200 magnification): 790 fmol/μg protein
- Kd ([6]; Scatchard, two independent binding site model, read-out: KD, higher affinity component): 257 nM and 260 nM
- Bmax, higher affinity component ([6]; Scatchard, two-site model): 3.18 nmoles Chrysamine G/mg Aβ (10-43)
- Bmax, lower affinity component ([6]; Scatchard, two-site model, less well defined): 18.7 nmoles Chrysamine G/mg Aβ (10-43)
- Kd ([6]; whether measured by Scatchard analysis, kinetic methods, or inhibition of binding, read-out: dissociation constant): 250 to 400 nM
- binding in Down's syndrome brain compared with control [7]: above the control range
- Ki ([8]; Ki for inhibition of [14C]Chrysamine G binding to Aβ (10-43), Ki=IC50/(1+[L]/KD), KD 0.26 μM): 370 ± 40 nM
- energy of binding ([8]; ΔG=−RT ln Keq, Keq=1/KD≈1/Ki): roughly 38 KJ/mole
- time by which association is essentially complete (Aβ (10-43); [Chrysamine G]=112 μM): ≤ 1 min
- Kd (Aβ (10-43); from kinetic constants, read-out: KD=k−1/k1): 340 nM
- recovered radioactivity co-eluting with authentic Chrysamine G on reverse phase HPLC [9]: > 95%
